Measured values published in US20250268748A1, “TREATMENT OF SPINAL MUSCULAR ATROPHY BY INDUCING HEAT SHOCK RESPONSE” (THE RESEARCH INSTITUTE AT NATIONWIDE CHILDREN'S HOSPITAL, priority 2016, published 2025).

Columns and labels:
[1] = tested on: SMN2 full length splicing in MCF-7 cells; test: 17-DMAG HSP90 inhibition, RT-PCR of SMN exon 7 splicing with or without heat shock; assay type: cell-based; conditions: for SMN2 full length splicing: 8 hours
Experimental: FIG. 7 provide an image and a graph showing that HSP90 inhibition prevents heat-induced SMN splicing correction. HSP90 inhibition was performed with 17-DMAG in MCF-7 cells. Dose responses were analyzed at 0, 10, 20, 40 nM 17-DMAG for 8 hours, with or without 41° C. heat treatment. Total RN A was harvested and RT-PCR amplification of SMN transcripts was used to observe splicing levels of exon 7. Significance levels are: * p-value<0.05, **p-value <0.01.
To validate the role of HSP90 in the SMN2 splicing under heat shock, the HSP90 ATPase inhibitor, 17-DMAG was administered to MCF-7 cells. 17-DMAG was administered at 0, 10 nM, 20 nM, and 40 nM concentrations the same time as the heat shock treatment, for the duration of 8 hours. Experiments were performed in parallel at 37° C. and 41° C. […] (FIG. 7). […] Full length SMN2 is quantitated for all samples and three trials are graphed, showing significant alterations in SMN splicing.
17-DMAG (17-Dimethylaminoethylamino-17-demethoxygeldanamycin) was purchased from Cayman Chemicals and resuspended in DMSO to a 20 mM stock. Then treatments were administered to cultured cells at a density of 75% in 6 well plates.
Cells grown under normal conditions (37° C.) were grown in a 5% C02, humidified incubator. Cells grown under heat shock conditions (38°-41° C.) were cultured at 5% C02, humidified incubators set to respective temperatures and monitored for temperature fluctuations with calibrated digital thermometer. Cells were maintained at their temperature treatment for the duration of the time point and harvested for RNA or protein directly following treatment.
Total RNA was isolated from samples using RNeasy kits (Qiagen). cDNA was created from RNA with Roche Transcriptor Reverse Transcriptase. cDNA was created from 1.5 ug of total RNA using random hexamers (Roche). PCR was performed with Sigma Taq Polymerase to detect exon 7 splicing of SMN1 and SMN2 transcripts. Primers were designed to flank exon 7 to visualize both full length and exon-skipped products: forward primer in exon 6 and reverse primer in exon 8. PCR cycles were performed with the following conditions: annealing temperature 62° C., 30 sec; 72° C. extension, 1 min; for 35 cycles. Importantly, there exists a unique digestion site (Ddel) within this PCR amplicon in exon 8 of SMN2. Therefore, to distinguish between SMN1 and SMN2transcripts, PCR products were digested with the enzyme Ddel. Subsequent digested PCR products were then resolved on 2.5% agarose gels (product sizes: SMN1 full-length: 507 bp, SMN1A7: 453 bp, SMN2 full-length: 392 bp, SMN2M: 338 bp). Splicing ratios were determined by densitometry (ImageQuant software, GE Healthcare Life Sciences) and statistical analysis (two tailed t test) performed using Graphpad Prism software.

[2] = tested on: SMN2 exon 7 inclusion in differentiated SH-SY5Y cells; test: Oxidative stress treatment, RT-PCR of SMN2 splicing; assay type: cell-based; conditions: 20 μM for 24 hours (oxidative stress)
Experimental: FIGS. 2A-2C provide graphs and images showing that heat shock increases the functional splicing product of SMN2 in a dose and time-dependent manner. A. Neuroblastoma cell line, SHSY-5Y, were differentiated for 7-9 days in 5 μM retinoic acid and then treated with various stresses to characterize the level of SMN2 as a stress-responsive gene. RNA splicing levels of SMN1 and 2 were observed by performing RTPCR analysis on total mRNA harvested from cell lysates. […] B. To test the cell-type specificity of the heat shock effect on SMN splicing, we performed a heat shock treatment on several cell lines. All treatments were performed with 24 hours of 41° C. and compared with NT (37° C.) quantitation is shown (n-3). This treatment was performed in Differentiated SHSY-5Y cells, SMA patient fibroblasts (GM03813), SMA carrier fibroblasts (GM03814), and a breast cancer cell line (MCF-7) cells. Heat treatment induces a significant change in splicing in all cell lines tested. C. To test the duration of heat treatment necessary for heat shock induced splicing correction a time course was performed. Differentiated SHSY-5Y cells were treated with 41° C. for 1, 4, 8, and 24 hour time intervals. D. To test the quantity of heat required to elicit splicing correction, a heat treatment dose response was performed. Differentiated SHSY-5Y cells were treated with temperatures from 37° to 41° C. for 8 hours. […]

| SMILES | SMN2 full length splicing ([1]; 10 nM, 37° C.) | SMN2 full length splicing ([1]; 10 nM, 41° C.) | SMN2 full length splicing ([1]; 20 nM, 37° C.) | SMN2 full length splicing ([1]; 20 nM, 41° C.) | SMN2 full length splicing ([1]; 40 nM, 37° C.) | SMN2 full length splicing ([1]; 40 nM, 41° C.) | heat shock-induced full length SMN2 splicing (summary statement) ([1]; heat shock) | SMN2 exon 7 inclusion [2] |
| --- | --- | --- | --- | --- | --- | --- | --- | --- |
| CO[C@H]1/C=C\C=C(/C)C(=O)NC2=CC(=O)C(NCCN(C)C)=C(C[C@@H](C)C[C@H](OC)[C@H](O)[C@@H](C)/C=C(\C)[C@@H]1OC(N)=O)C2=O [17-DMAG, 17-Dimethylaminoethylamino-17-demethoxygeldanamycin] | significant decrease | significantly decreased the full length splicing to even below baseline splicing at 37 °C | began to approach basal splicing levels | significantly decreased the full length splicing to even below baseline splicing at 37 °C | began to approach basal splicing levels | significantly decreased the full length splicing to even below baseline splicing at 37 °C | prevents |  |
| OO [HO2] |  |  |  |  |  |  |  | mild decreases in exon 7 inclusion |
